Measurements published in ChEMBL document CHEMBL6078630, “Design, synthesis, and bioactivity investigation of novel cyclic lipopeptide antibiotics targeting top-priority multidrug-resistant gram-negative bacteria” (Eur J Med Chem, 2024).
Converted amounts (≈) assume the structure as drawn. Bridge positions count the residues as written; N and C are the ends. Square brackets hold non-standard residues; d marks the D form. Peptide text beside a SMILES is read from it. * marks the point of attachment. X1 = CC[C@H](C)CCCCC(=O)*; Dab = NCC[C@H](N)C(=O)O

Columns and labels:
Assay type in all cases: functional
[1] = tested on: Escherichia coli; test: Antibacterial activity against Escherichia coli ATCC BAA-2523 assessed as inhibition of bacterial growth incubated for 16 to 20 hrs by CLSI protocol based broth microdilution method; settings: time 16-20 hrs
[2] = tested on: Escherichia coli; test: Antibacterial activity against carbapenem-resistant Escherichia coli ATCC BAA-2340 assessed as inhibition of bacterial growth incubated for 16 to 20 hrs by CLSI protocol based broth microdilution method; settings: time 16-20 hrs
[3] = tested on: Klebsiella pneumoniae; test: Antibacterial activity against carbapenem-resistant Klebsiella pneumoniae clinical isolate KPN+19-15 assessed as inhibition of bacterial growth incubated for 16 to 20 hrs by CLSI protocol based broth microdilution method; settings: time 16-20 hrs
[4] = tested on: Klebsiella pneumoniae; test: Antibacterial activity against carbapenem-resistant Klebsiella pneumoniae ATCC BAA-1705 assessed as inhibition of bacterial growth incubated for 16 to 20 hrs by CLSI protocol based broth microdilution method; settings: time 16-20 hrs
[5] = tested on: Pseudomonas aeruginosa; test: Antibacterial activity against carbapenem-resistant Pseudomonas aeruginosa clinical isolate 19-3 assessed as inhibition of bacterial growth incubated for 16 to 20 hrs by CLSI protocol based broth microdilution method; settings: time 16-20 hrs
[6] = tested on: Pseudomonas aeruginosa; test: Antibacterial activity against Pseudomonas aeruginosa ATCC 27853 assessed as inhibition of bacterial growth incubated for 16 to 20 hrs by CLSI protocol based broth microdilution method; settings: time 16-20 hrs
[7] = tested on: Acinetobacter baumannii; test: Antibacterial activity against carbapenem-sensitive Acinetobacter baumannii clinical isolate 19-1 assessed as inhibition of bacterial growth incubated for 16 to 20 hrs by CLSI protocol based broth microdilution method; settings: time 16-20 hrs
[8] = tested on: Acinetobacter baumannii; test: Antibacterial activity against Acinetobacter baumannii NCTC 13304 (OXA-27) assessed as inhibition of bacterial growth incubated for 16 to 20 hrs by CLSI protocol based broth microdilution method; settings: time 16-20 hrs
[9] = tested on: Escherichia coli; test: Antibacterial activity against carbapenem-resistant Escherichia coli clinical isolate 231016w014 assessed as inhibition of bacterial growth incubated for 24 hrs by CLSI protocol based broth microdilution method
[10] = tested on: Escherichia coli; test: Antibacterial activity against carbapenem-resistant Escherichia coli clinical isolate 231112E006B assessed as inhibition of bacterial growth incubated for 24 hrs by CLSI protocol based broth microdilution method
[11] = tested on: Escherichia coli; test: Antibacterial activity against carbapenem-resistant Escherichia coli clinical isolate 231109W005 assessed as inhibition of bacterial growth incubated for 24 hrs by CLSI protocol based broth microdilution method
[12] = tested on: Klebsiella pneumoniae; test: Antibacterial activity against carbapenem-resistant Klebsiella pneumoniae clinical isolate ets26 assessed as inhibition of bacterial growth incubated for 24 hrs by CLSI protocol based broth microdilution method
[13] = tested on: Klebsiella pneumoniae; test: Antibacterial activity against carbapenem-resistant Klebsiella pneumoniae clinical isolate ets40 assessed as inhibition of bacterial growth incubated for 24 hrs by CLSI protocol based broth microdilution method
[14] = tested on: Klebsiella pneumoniae; test: Antibacterial activity against carbapenem-resistant Klebsiella pneumoniae clinical isolate ets45 assessed as inhibition of bacterial growth incubated for 24 hrs by CLSI protocol based broth microdilution method
[15] = tested on: Klebsiella pneumoniae; test: Antibacterial activity against carbapenem-resistant Klebsiella pneumoniae clinical isolate ets74 assessed as inhibition of bacterial growth incubated for 24 hrs by CLSI protocol based broth microdilution method
[16] = tested on: Klebsiella pneumoniae; test: Antibacterial activity against carbapenem-resistant Klebsiella pneumoniae clinical isolate ets75 assessed as inhibition of bacterial growth incubated for 24 hrs by CLSI protocol based broth microdilution method
[17] = tested on: Klebsiella pneumoniae; test: Antibacterial activity against carbapenem-resistant Klebsiella pneumoniae clinical isolate ets77 assessed as inhibition of bacterial growth incubated for 24 hrs by CLSI protocol based broth microdilution method
[18] = tested on: Klebsiella pneumoniae; test: Antibacterial activity against carbapenem-resistant Klebsiella pneumoniae clinical isolate ets78 assessed as inhibition of bacterial growth incubated for 24 hrs by CLSI protocol based broth microdilution method
[19] = tested on: Klebsiella pneumoniae; test: Antibacterial activity against carbapenem-resistant Klebsiella pneumoniae clinical isolate ets80 assessed as inhibition of bacterial growth incubated for 24 hrs by CLSI protocol based broth microdilution method
[20] = tested on: Pseudomonas aeruginosa; test: Antibacterial activity against carbapenem-resistant Pseudomonas aeruginosa clinical isolate ets5 assessed as inhibition of bacterial growth incubated for 24 hrs by CLSI protocol based broth microdilution method
[21] = tested on: Pseudomonas aeruginosa; test: Antibacterial activity against carbapenem-resistant Pseudomonas aeruginosa clinical isolate ets6 assessed as inhibition of bacterial growth incubated for 24 hrs by CLSI protocol based broth microdilution method
[22] = tested on: Pseudomonas aeruginosa; test: Antibacterial activity against carbapenem-resistant Pseudomonas aeruginosa clinical isolate ets15 assessed as inhibition of bacterial growth incubated for 24 hrs by CLSI protocol based broth microdilution method
[23] = tested on: Pseudomonas aeruginosa; test: Antibacterial activity against carbapenem-resistant Pseudomonas aeruginosa clinical isolate ets22 assessed as inhibition of bacterial growth incubated for 24 hrs by CLSI protocol based broth microdilution method
[24] = tested on: Pseudomonas aeruginosa; test: Antibacterial activity against carbapenem-resistant Pseudomonas aeruginosa clinical isolate ets33 assessed as inhibition of bacterial growth incubated for 24 hrs by CLSI protocol based broth microdilution method
[25] = tested on: Pseudomonas aeruginosa; test: Antibacterial activity against carbapenem-resistant Pseudomonas aeruginosa clinical isolate ets38 assessed as inhibition of bacterial growth incubated for 24 hrs by CLSI protocol based broth microdilution method
[26] = tested on: Pseudomonas aeruginosa; test: Antibacterial activity against carbapenem-resistant Pseudomonas aeruginosa clinical isolate ets49 assessed as inhibition of bacterial growth incubated for 24 hrs by CLSI protocol based broth microdilution method
[27] = tested on: Pseudomonas aeruginosa; test: Antibacterial activity against carbapenem-resistant Pseudomonas aeruginosa clinical isolate ets55 assessed as inhibition of bacterial growth incubated for 24 hrs by CLSI protocol based broth microdilution method
[28] = tested on: Pseudomonas aeruginosa; test: Antibacterial activity against carbapenem-resistant Pseudomonas aeruginosa clinical isolate ets83 assessed as inhibition of bacterial growth incubated for 24 hrs by CLSI protocol based broth microdilution method
[29] = tested on: Pseudomonas aeruginosa; test: Antibacterial activity against carbapenem-resistant Pseudomonas aeruginosa clinical isolate ets84 assessed as inhibition of bacterial growth incubated for 24 hrs by CLSI protocol based broth microdilution method
[30] = tested on: Pseudomonas aeruginosa; test: Antibacterial activity against carbapenem-resistant Pseudomonas aeruginosa clinical isolate ets85 assessed as inhibition of bacterial growth incubated for 24 hrs by CLSI protocol based broth microdilution method
[31] = tested on: Pseudomonas aeruginosa; test: Antibacterial activity against carbapenem-resistant Pseudomonas aeruginosa clinical isolate ets104 assessed as inhibition of bacterial growth incubated for 24 hrs by CLSI protocol based broth microdilution method
[32] = tested on: Acinetobacter baumannii; test: Antibacterial activity against carbapenem-resistant Acinetobacter baumannii clinical isolate ets30 assessed as inhibition of bacterial growth incubated for 24 hrs by CLSI protocol based broth microdilution method
[33] = tested on: Acinetobacter baumannii; test: Antibacterial activity against carbapenem-resistant Acinetobacter baumannii clinical isolate ets104 assessed as inhibition of bacterial growth incubated for 24 hrs by CLSI protocol based broth microdilution method
[34] = tested on: Acinetobacter baumannii; test: Antibacterial activity against carbapenem-resistant Acinetobacter baumannii clinical isolate ets123 assessed as inhibition of bacterial growth incubated for 24 hrs by CLSI protocol based broth microdilution method
[35] = tested on: Acinetobacter baumannii; test: Antibacterial activity against carbapenem-resistant Acinetobacter baumannii clinical isolate ets171 assessed as inhibition of bacterial growth incubated for 24 hrs by CLSI protocol based broth microdilution method
[36] = tested on: Acinetobacter baumannii; test: Antibacterial activity against carbapenem-resistant Acinetobacter baumannii clinical isolate ets178 assessed as inhibition of bacterial growth incubated for 24 hrs by CLSI protocol based broth microdilution method
[37] = tested on: Klebsiella pneumoniae; test: Antibacterial activity against carbapenem-resistant Klebsiella pneumoniae clinical isolate KPN+19-15 infected in ICR mouse model administered intravenously with compound at 1 and 6 hrs post-infection and measured after 7 days; settings: 168 h, route iv, time 7 day
[38] = tested on: Klebsiella pneumoniae; test: Antibacterial activity against carbapenem-resistant Klebsiella pneumoniae clinical isolate KPN+19-15 infected in ICR mouse model assessed as survival rate at 4 mg/kg, iv administered at 1 and 6 hrs post-infection and measured after 7 days relative to control; settings: 168 h, time 7 day
[39] = tested on: Pseudomonas aeruginosa; test: Antibacterial activity against Pseudomonas aeruginosa ATCC 27853 infected in ICR mouse model infected in ICR mouse model assessed as survival rate at 2 mg/kg, iv administered at 1 and 6 hrs post-infection and measured after 7 days relative to control; settings: ATCC 27853, 168 h, time 7 day
[40] = tested on: Pseudomonas aeruginosa; test: Antibacterial activity against Pseudomonas aeruginosa ATCC 27853 assessed as inhibition of bacterial growth incubated 24 hrs by cation adjusted Mueller-Hinton broth based method

CC(C)CCCCC(=O)N[C@@H](CCN)C(=O)N[C@H](C(=O)N[C@@H](CCN)C(=O)N[C@H]1CCNC(=O)[C@H]([C@@H](C)O)NC(=O)[C@H](CCN)NC(=O)[C@H](CCN)NC(=O)[C@H](CC(C)C)NC(=O)[C@@H](Cc2ccccc2)NC(=O)[C@H](CCN)NC1=O)[C@@H](C)O.CC[C@H](C)CCCCC(=O)N[C@@H](CCN)C(=O)N[C@H](C(=O)N[C@@H](CCN)C(=O)N[C@H]1CCNC(=O)[C@H]([C@@H](C)O)NC(=O)[C@H](CCN)NC(=O)[C@H](CCN)NC(=O)[C@H](CC(C)C)NC(=O)[C@@H](Cc2ccccc2)NC(=O)[C@H](CCN)NC1=O)[C@@H](C)O (X1-[Dab]T[Dab][Dab][Dab][dF]L[Dab][Dab]T; lactam 4-C)
MIC [1]: ≤ 0.03 µg/mL | MIC [2]: ≤ 0.03 µg/mL | MIC [3]: 0.125 µg/mL | MIC [4]: 0.125 µg/mL | MIC [5]: 0.25 µg/mL | MIC [6]: 0.25 µg/mL | MIC [7]: 0.25 µg/mL | MIC [8]: 0.06 µg/mL | MIC [9]: < 0.06 µg/mL | MIC [10]: < 0.06 µg/mL | MIC [11]: < 0.06 µg/mL | MIC [12]: 2 µg/mL | MIC [13]: 1 µg/mL | MIC [14]: 2 µg/mL | MIC [15]: 1 µg/mL | MIC [16]: 1 µg/mL | MIC [17]: 1 µg/mL | MIC [18]: 0.5 µg/mL | MIC [19]: 1 µg/mL | MIC [20]: 2 µg/mL | MIC [21]: 2 µg/mL | MIC [22]: 1 µg/mL | MIC [23]: 4 µg/mL | MIC [24]: 4 µg/mL | MIC [25]: 4 µg/mL | MIC [26]: 4 µg/mL | MIC [27]: 4 µg/mL | MIC [28]: 1 µg/mL | MIC [29]: 0.5 µg/mL | MIC [30]: 4 µg/mL | MIC [31]: 4 µg/mL | MIC [32]: 1 µg/mL | MIC [33]: 0.125 µg/mL | MIC [34]: 1 µg/mL | MIC [35]: 2 µg/mL | MIC [36]: 2 µg/mL | ED50 [37]: 2.7 mg/kg | survival at 4 mg/kg [38]: 62.5% | survival at 2 mg/kg [39]: 37.5%

CO[C@H]1/C=C/O[C@@]2(C)Oc3c(C)c(O)c4c(O)c(c(/C=N/N5CCN(C)CC5)c(O)c4c3C2=O)NC(=O)/C(C)=C\C=C\[C@H](C)[C@H](O)[C@@H](C)[C@@H](O)[C@@H](C)[C@H](OC(C)=O)[C@@H]1C [RIFAMPIN]
MIC [40]: 32 µg/mL (≈ 38.9 µM)
